Reference: paper PMC6884456, “Supreme activity of gramicidin S against resistant, persistent and biofilm cells of staphylococci and enterococci” (Scientific Reports, 2019)
Where no end group is shown, it is not given here.

Assays:
S. aureus DSM 1104 [1] = assay type: cell-based, Staphylococcus aureus; conditions: S. aureus DSM 1104; 10 µl from MIC plates spotted on Mueller-Hinton agar, overnight 37 °C, no colonies on two plates
S. aureus DSM 1104 SCV [2] = assay type: cell-based, Staphylococcus aureus; conditions: spotted from MIC plates on Mueller-Hinton agar, overnight, no colonies
Procedure: MBC was determined directly after the MIC evaluation.

S. aureus MRSA3 = assay type: cell-based, Staphylococcus aureus; conditions: S. aureus MRSA3; spotted from MIC plates on Mueller-Hinton agar, overnight, no colonies
S. aureus MRSA4 = assay type: cell-based, Staphylococcus aureus; conditions: S. aureus MRSA4; spotted from MIC plates on Mueller-Hinton agar, overnight, no colonies
S. aureus MRSA9 = assay type: cell-based, Staphylococcus aureus; conditions: S. aureus MRSA9; spotted from MIC plates on Mueller-Hinton agar, overnight, no colonies
S. aureus MRSA538 SCV = conditions: spotted from MIC plates on Mueller-Hinton agar, overnight, no colonies
Procedure: (§1) MBC was determined directly after the MIC evaluation. The 10 µl samples of all 8 dilution rows in the microtiter plates were spotted on square Mueller-Hinton agar plates and incubated overnight at 37 °C and 5% CO2. The MBC was determined as the concentration at which no bacterial colonies were obtained on the two parallel spotted plates.

S. aureus MRSA8 SCV [3] = conditions: spotted from MIC plates on Mueller-Hinton agar, overnight, no colonies
Procedure: as §1

S. aureus MRSA9 SCV = conditions: spotted from MIC plates on Mueller-Hinton agar, overnight, no colonies
Procedure: as §1

E. faecalis DSM 2570 [4] = assay type: cell-based, Enterococcus faecalis; conditions: E. faecalis DSM 2570; spotted from MIC plates on Mueller-Hinton agar, overnight, no colonies
E. faecalis WW4 = assay type: cell-based, Enterococcus faecalis; conditions: E. faecalis WW4; spotted from MIC plates on Mueller-Hinton agar, overnight, no colonies
E. faecalis WW6 [5] = assay type: cell-based, Enterococcus faecalis; conditions: E. faecalis WW6; spotted from MIC plates on Mueller-Hinton agar, overnight, no colonies
E. faecalis TRE1 = assay type: cell-based, Enterococcus faecalis; conditions: E. faecalis TRE1; spotted from MIC plates on Mueller-Hinton agar, overnight, no colonies
E. faecalis TRE2 [6] = assay type: cell-based, Enterococcus faecalis; conditions: E. faecalis TRE2; spotted from MIC plates on Mueller-Hinton agar, overnight, no colonies
E. faecalis TRE4 = assay type: cell-based, Enterococcus faecalis; conditions: E. faecalis TRE4; spotted from MIC plates on Mueller-Hinton agar, overnight, no colonies
E. faecium VRE1 = assay type: cell-based, Enterococcus faecium; conditions: E. faecium VRE1; spotted from MIC plates on Mueller-Hinton agar, overnight, no colonies
E. faecium VRE2 = assay type: cell-based, Enterococcus faecium; conditions: E. faecium VRE2; spotted from MIC plates on Mueller-Hinton agar, overnight, no colonies
S. aureus DSM 1104 SCV [7] = assay type: cell-based, Staphylococcus aureus; conditions: value in parentheses
Procedure: (§2) This parameter quantifies the ability of the peptides to prevent biofilm outgrowth.
(§3) After co-incubation with peptides at 37 °C and 5% CO2 without agitation for 24 hours, the planktonic cells were washed, and Crystal violet staining was applied.

E. faecalis DSM 2570 [8] = conditions: E. faecalis DSM 2570; value in parentheses
Procedure: as §2, §3

E. faecalis TRE2 [9] = conditions: E. faecalis TRE2; value in parentheses
Procedure: as §2, §3

E. faecalis WW6 [10] = conditions: E. faecalis WW6; Todd-Hewitt broth, 5 × 10^7 CFU/ml, 24 h, 37 °C, Crystal violet
Procedure: as §2, §3

S. aureus DSM 1104 [11] = conditions: S. aureus DSM 1104; value in parentheses
Procedure: as §2, §3

S. aureus MRSA8 SCV [12] = conditions: value in parentheses
Procedure: as §2, §3

[13] = target: human serum albumin (HSA) (Homo sapiens, UniProt P02768); experiment: HSA binding, biomimetic chromatography; conditions: Chiralpak-HSA column
Procedure: (§4) HPLC was performed on an Agilent 1100 system with an ultraviolet diode array detector. […] Binding measurements were performed using Regis Technologies IAM.PC.DD2 (100 × 4.6 mm), HiChrom Chiralpak-HSA (50 × 3 mm) and HiChrom Chiralpak-AGP (50 × 3 mm) columns. […] Retention times were converted to log k and % binding, using calibration routines described in[72].

[14] = tested on: α1-acid glycoprotein (AGP); experiment: AGP binding, biomimetic chromatography; conditions: Chiralpak-AGP column
Procedure: as §4

[15] = Chromatographic hydrophobicity index (CHI), C18
Procedure: as §4

Danio rerio embryos = experiment: Acute toxicity in Danio rerio embryos; assay type: in vivo; conditions: zebrafish embryos 72 hpf, E3 medium, heart beat
Procedure: Experiments were performed in accordance with the relevant OECD testing guidelines[73] and German animal protection standards. Wild type D. rerio embryos were obtained at the European Zebrafish Resource Center (Karlsruhe). Fertilized eggs (6 hpf) were raised in 4 ml of embryonic medium (E3) at 28 °C until 72 hpf (6-well plate, 20 eggs/well). Embryos were transferred into flat-bottom glass vials (E3, 1 ml, 15–20 embryos/vial). Peptides were added as 20 µl aliquots in 10% dimethyl sulfoxide in serial 2-fold dilutions. Toxicity was expressed as the concentration at which 50% of the embryos were visually observed to die (measured at 1 and 3 hours exposure) by identifying the heart beat.

human erythrocytes = experiment: Haemolysis assay; assay type: cell-based; conditions: 0.25% human erythrocyte suspension, 37 °C, 30 min, A540, relative to 0.1% Triton X-100
Procedure: Haemolytic activity was determined with a serial 2-fold dilution assay. Citrate phosphate dextrose-stabilized human erythrocyte suspensions were obtained from Karlsruhe Municipal Hospital. […] The mixture was pelleted (13 000 rpm, 10 min, 4 °C), and the absorbance of the supernatant was recorded at 540 nm vs. reaction buffer. The extent of haemolysis was related to the action of 0.1% Triton X-100 (100%).

[16] = 50 mM ammonium acetate pH 7.4, 0–35% 2-propanol gradient, calibrated retention times, UV
[17] = pH 7.4, 0–35% 2-propanol gradient, value in parentheses

human serum albumin (HSA), sequence (P02768 25-609): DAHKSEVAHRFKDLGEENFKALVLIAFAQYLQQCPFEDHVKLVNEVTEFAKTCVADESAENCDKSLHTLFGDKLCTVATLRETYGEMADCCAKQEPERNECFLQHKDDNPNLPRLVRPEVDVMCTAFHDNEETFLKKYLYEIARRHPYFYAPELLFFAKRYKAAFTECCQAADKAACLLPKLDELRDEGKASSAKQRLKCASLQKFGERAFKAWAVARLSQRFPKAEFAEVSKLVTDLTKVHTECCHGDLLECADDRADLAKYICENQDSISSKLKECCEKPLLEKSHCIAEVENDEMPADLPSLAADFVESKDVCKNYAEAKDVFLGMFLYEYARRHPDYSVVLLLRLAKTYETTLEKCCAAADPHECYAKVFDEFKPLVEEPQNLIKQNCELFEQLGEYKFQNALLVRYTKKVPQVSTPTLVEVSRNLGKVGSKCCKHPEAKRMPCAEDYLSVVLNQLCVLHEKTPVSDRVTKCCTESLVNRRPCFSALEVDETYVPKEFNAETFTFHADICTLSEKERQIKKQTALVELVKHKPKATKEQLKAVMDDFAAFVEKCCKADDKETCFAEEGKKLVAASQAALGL

For VRLIVAVRIWRR-NH2 [IDR, IDR-1018], the MBC (S. aureus DSM 1104 [1]) was 128 (83) µg/ml, the MBC (S. aureus DSM 1104 SCV [2]) was 128 (83) µg/ml and the MBC (S. aureus MRSA3) was 128 (83) µg/ml. The MBC (S. aureus MRSA4) was greater than 256 µg/mL, the MBC (S. aureus MRSA9) was 128 (83) µg/ml and the MBC (S. aureus MRSA538 SCV) was 128 (83) µg/ml. The MBC (S. aureus MRSA8 SCV [3]) was 128 (83) µg/ml, the MBC (S. aureus MRSA9 SCV) was 128 (83) µg/ml and the MBC (E. faecalis DSM 2570 [4]) was 64 (42) µg/ml. The MBC (E. faecalis WW4) was 64 (42) µg/ml, the MBC (E. faecalis WW6 [5]) was 64 (42) µg/ml and the MBC (E. faecalis TRE1) was 64 (42) µg/ml. For the same substance, the MBC (E. faecalis TRE2 [6]) was 128 (83) µg/ml, the MBC (E. faecalis TRE4) was 16 (10) µg/ml and the MBC (E. faecium VRE1) was 32 (21) µg/ml. The MBC (E. faecium VRE2) was 32 (21) µg/ml, the MBIC90 (S. aureus DSM 1104 SCV [7]) was 83 µM and the MBIC90 (E. faecalis DSM 2570 [8]) was 167 µM. For the same substance, the MBIC90 (E. faecalis TRE2 [9]) was 167 µM, the MBIC90 (E. faecalis WW6 [10]) was greater than 256 µg/mL and the MBIC90 (S. aureus DSM 1104 [11]) was 42 µM. The MBIC90 (S. aureus MRSA8 SCV [12]) was 42 µM, the “Bound HSA” value [13, 16] was 97.98% and the “log k HSA” value [13, 17] was 1.51. The “Bound AGP” value [14, 16] was 93.37%, the “log k AGP” value [14, 17] was 1.09 and the chromatographic logD ([15]; pH 2.6) was -0.53. For the same substance, the chromatographic logD ([15]; pH 7.4) was 0.88, the chromatographic logD ([15]; pH 10.5) was 4.43 and the “1h LD50” value (Danio rerio embryos; 1 hour exposure) was 15 µg/mL. For the same substance, the “3h LD50” value (Danio rerio embryos; 3 hours exposure) was 11 µg/mL, the “Haemolysis at 5 μM” value (human erythrocytes; 5 μM peptide) was 18% and the “Haemolysis at 10 μM” value (human erythrocytes; 10 μM peptide) was 28%.
